Source: patent US20230286973A1, “PROTEIN SECRETION INHIBITORS” (KEZAR LIFE SCIENCES, priority 2020, published 2023)
Values joined by “and” are separate entries in the source; they are usually repeats but may differ in a detail not shown here. Equal values may be shown once. Read-outs that look alike come from different tables or passages of the source.

Key:
[1] = system: multiple myeloma cell line NCI-H929; experiment: H929 Cell Viability Assay; assay type: cell-based, human; settings: NCI-H929 cells, Celltiter-Glo
Summary of the method: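 Viability is scored by CellTiter-Glo luminescence following a 48-hour treatment at 37° C. Data for structures shown without stereochemistry refer to stereoisomer mixtures.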

[2] = Liver Microsome Stability Assay (human); settings: human liver microsomes, with NADPH, 1.0 uM compound
Procedure: (§1) Stability of a compound was assessed in the presence of liver microsomes from various sources—mouse, rat, monkey and human liver microsomes. 1.0 uM compound, 0.4% DMSO in 0.1 M Potassium Phosphate with 1.0 mg/mL liver microsomes, were incubated at 37° C. with or without 1 mM NADPH. The samples were quenched at 0, and 30 minutes.

[3] = system: IL-2-FL/Gaussia Luciferase; experiment: Dox Induced IL2-FL-Gluc Assay; assay type: cell-based; settings: for IC50: 24 hr Dox induction, 293FRT/TO cells, read-out: 24 hr Dox Inducible IL2FLGluc 293FRT/TO: Mean IC50; for 24 hr Dox Inducible IL2FLGluc 293FRT/TO: IL2/PD1: ratio of IL2FLGluc IC50 to PD1ssGluc IC50
Summary of the method: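 Doxycycline induces an IL-2(1-153)–Gaussia luciferase fusion in a stable Flp-In 293 T-REx line. Compound exposure runs alongside induction at 37° C.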

[4] = Liver Microsome Stability Assay (monkey); settings: monkey liver microsomes, with NADPH, 1.0 uM compound
Procedure: as §1

[5] = system: multiple myeloma cell line U266B1; experiment: U266 Cell Viability Assay; assay type: cell-based, human; settings: U266B1 cells, Celltiter-Glo
Summary of the method: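 Viability is measured as luciferase signal from CellTiter-Glo following a 48-hour incubation with compound at 37° C. under 5% CO2. Where structures lack drawn stereochemistry, values refer to stereoisomer mixtures.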

[6] = Liver Microsome Stability Assay (rat); settings: rat liver microsomes, with NADPH, 1.0 uM compound
Procedure: as §1

[7] = system: TNFα-FL/Gaussia Luciferase; experiment: Dox Induced TNFα-FL-Gluc Assay; assay type: cell-based; settings: for IC50: 24 hr Dox induction, 293FRT/TO cells, read-out: 24 hr Dox Inducible TNFaFLGluc 293FRT/TO: Mean IC50; for 24 hr Dox Inducible TNFaFLGluc 293FRT/TO: TNF/PD1: ratio of TNFaFLGluc IC50 to PD1ssGluc IC50
Summary of the method: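 Doxycycline-inducible Gaussia luciferase-tagged full-length TNFα (1-233) was expressed in stable Flp-In 293 T-REx cells. Compounds were co-added with doxycycline and incubated at 37 °C, 5% CO2.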

[8] = Liver Microsome Stability Assay (mouse); settings: mouse liver microsomes, with NADPH, 1.0 uM compound
Procedure: as §1

[9] = system: PD1-ss+10aa/Gaussia Luciferase; experiment: Dox-Induced PD1-ss-Gluc Assay; assay type: cell-based
Summary of the method: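 Flp-In 293 T-REx cells stably carrying a doxycycline-inducible Gaussia luciferase fused to the PD1 signal sequence plus 10 aa were plated the day before. Compound dilutions in DMSO/media containing doxycycline were then added and incubated at 37 °C, 5% CO2. Data for undefined stereochemistry refer to stereoisomer mixtures.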

[10] = system: HER3-ss+4aa/Gaussia Luciferase; experiment: Dox-Induced Her3-ss-Gluc Assay; assay type: cell-based
Summary of the method: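 Reporter line: Flp-In 293 T-REx, T-REx-regulated HER3-ss+4aa fused to Gaussia luciferase. Compound co-added with doxycycline after overnight plating, 37° C., 5% CO2.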

[11] = 24 hr Dox induction; 293FRT/TO cells; read-out: 24 hr Dox Inducible PD1ssGluc 293FRT/TO: Mean IC50
[12] = 24 hr Dox induction; 293FRT/TO cells; read-out: 24 hr Dox Inducible Her3(ss + 4)Gluc 293FRT/TO: Mean IC50

Compound | EC50 ([1]; Homo sapiens, NCI-H929, 48 h) | Liver Microsome Stability (Multiple Species): Human - % Remaining after 30 min w/NADPH [2] | IC50 [3] | 24 hr Dox Inducible IL2FLGluc 293FRT/TO: IL2/PD1 [3] | Liver Microsome Stability (Multiple Species): Monkey - % Remaining after 30 min w/NADPH [4] | EC50 ([5]; Homo sapiens, U-266, 48 h) | Liver Microsome Stability (Multiple Species): Rat - % Remaining after 30 min w/NADPH [6] | IC50 [7] | 24 hr Dox Inducible TNFaFLGluc 293FRT/TO: TNF/PD1 [7] | Liver Microsome Stability (Multiple Species): Mouse - % Remaining after 30 min w/NADPH [8] | IC50 [9, 11] | IC50 [10, 12] | EC50 ([1]; 48 hr) | EC50 ([5]; 48 hr) | EC50 ([1]; Homo sapiens, 48 hr) | EC50 ([5]; Homo sapiens, U-266, 48 hr) | IC50 ([9]; read-out: 24 hr Dox Inducible PD1ssGluc 293FRT/TO: Mean IC50; 24 hr Dox induction; 293FRT/TO cells) | IC50 ([10]; read-out: 24 hr Dox Inducible Her3(ss + 4)Gluc 293FRT/TO: Mean IC50; 24 hr Dox induction; 293FRT/TO cells)
CC(=O)N1CCC[C@H](Oc2ccc(N3CCC[C@@H]3c3csc(NC(=O)c4cccn4Cc4ccnc(F)c4)n3)cc2)C1 [Compound A84, N-(4-((R)-1-(4-(((S)-1-acetylpiperidin-3-yl)oxy)phenyl)pyrrolidin-2-yl)thiazol-2-yl)-1-((2-fluoropyridin-4-yl)methyl)-1H-pyrrole-2-carboxamide] | 1.05 µM | 0.5% | 0.087 µM | 2.1 | 0.73% | > 25 µM | 2.51% | 0.31 µM | 7.61 | 1% | 0.0407 µM | 0.0626 µM |  |  |  |  |  | 
O=C(Nc1nc([C@H]2CCCN2c2ccc(OC3CNC3)cc2)cs1)c1cccn1Cc1ccnc(F)c1 [Compound A85, (R)-N-(4-(1-(4-(azetidin-3-yloxy)phenyl)pyrrolidin-2-yl)thiazol-2-yl)-1-((2-fluoropyridin-4-yl)methyl)-1H-pyrrole-2-carboxamide] | 6.26 µM | 52.8% and 65.2% | 2.11 µM and 1.47 µM | 7.4 and 5 | 49% and 62.5% | 10.3 µM | 90.7% and 99.6% | 21.6 µM and > 25 µM | 75.9 and > 85.1 | 57.7% and 62.5% | 0.285 µM and 0.294 µM | 0.566 µM and 0.543 µM | 5.29 µM | 7.38 µM |  |  |  | 
O=C(Nc1nc([C@H]2CCCN2c2ccc(O[C@@H]3CCCNC3)cc2)cs1)c1cccn1Cc1ccnc(F)c1 [Compound A87, 1-((2-fluoropyridin-4-yl)methyl)-N-(4-((R)-1-(4-(((R)-piperidin-3-yl)oxy)phenyl)pyrrolidin-2-yl)thiazol-2-yl)-1H-pyrrole-2-carboxamide] | 6.31 µM | 51.1% | 2.58 µM | 4.1 | 32.6% | 8.83 µM | 61.8% | 21.5 µM | 33.8 | 75.6% | 0.636 µM | 1.15 µM |  |  |  |  |  | 
O=C(Nc1nc([C@H]2CCCN2c2ccc(O[C@H]3CCCNC3)cc2)cs1)c1cccn1Cc1ccnc(F)c1 [Compound A88, 1-((2-fluoropyridin-4-yl)methyl)-N-(4-((R)-1-(4-(((S)-piperidin-3-yl)oxy)phenyl)pyrrolidin-2-yl)thiazol-2-yl)-1H-pyrrole-2-carboxamide] | 7.33 µM | 57.6% | 3.33 µM | 3.5 | 3.2% | 11.5 µM | 76% | 11 µM | 11.5 | 71.7% | 0.952 µM | 1.21 µM |  |  |  |  |  | 
O=C(Nc1nc([C@H]2CCCN2c2ccc(OC3=CCNCC3)cc2)cs1)c1cccn1Cc1ccnc(F)c1 [Compound A89, (R)-1-((2-fluoropyridin-4-yl)methyl)-N-(4-(1-(4-((1,2,3,6-tetrahydropyridin-4-yl)oxy)phenyl)pyrrolidin-2-yl)thiazol-2-yl)-1H-pyrrole-2-carboxamide] | 6.37 µM | 47% | 2.71 µM | 4.9 | 2.45% | 8.3 µM | 56.9% | 18.4 µM | 32.9 | 40.4% | 0.558 µM | 1.11 µM |  |  |  |  |  | 
O=C(Nc1nc([C@H]2CCCN2c2ccc(OC3CCN(C(=O)CF)CC3)cc2)cs1)c1cccn1Cc1ccnc(F)c1 [Compound A90, (R)-N-(4-(1-(4-((1-(2-fluoroacetyl)piperidin-4-yl)oxy)phenyl)pyrrolidin-2-yl)thiazol-2-yl)-1-((2-fluoropyridin-4-yl)methyl)-1H-pyrrole-2-carboxamide] |  | 22.3% | 0.0829 µM | 2 | 1.3% |  | 39.1% | 0.512 µM | 12.4 | 21.7% |  |  |  |  | 1.08 µM | > 25 µM | 0.0415 µM | 0.0828 µM
O=C(Nc1nc([C@H]2CCCN2c2ccc(OC3CCN(C(=O)C(F)F)CC3)cc2)cs1)c1cccn1Cc1ccnc(F)c1 [Compound A91, (R)-N-(4-(1-(4-((1-(2,2-difluoroacetyl)piperidin-4-yl)oxy)phenyl)pyrrolidin-2-yl)thiazol-2-yl)-1-((2-fluoropyridin-4-yl)methyl)-1H-pyrrole-2-carboxamide] | 0.346 µM | 43% | 0.025 µM | 1.7 | 2.34% | > 25 µM | 19.7% | 0.148 µM | 10 | 27.4% | 0.0148 µM | 0.0265 µM |  |  |  |  |  | 
O=C(Nc1nc([C@H]2CCCN2c2ccc(OC3CCN(C(=O)C(F)(F)F)CC3)cc2)cs1)c1cccn1Cc1ccnc(F)c1 [Compound A92, (R)-1-((2-fluoropyridin-4-yl)methyl)-N-(4-(1-(4-((1-(2,2,2-trifluoroacetyl)piperidin-4-yl)oxy)phenyl)pyrrolidin-2-yl)thiazol-2-yl)-1H-pyrrole-2-carboxamide] | 0.463 µM | 63.5% | 0.0306 µM | 1.3 | 22.5% | > 25 µM | 43.6% | 0.254 µM | 10.9 | 52.3% | 0.0233 µM | 0.0473 µM |  |  |  |  |  | 
